Reference: patent publication USRE38984E1, “Antifungal combination therapy” (Merck & Co., Inc., priority 1996, dated 2006)

Columns and labels:
[1] = drug interaction and efficacy studies against disseminated candidiasis, aspergillosis and cryptococcosis (overall findings); format: in vivo
Protocol: (§1) Drug interaction and efficacy studies with Compound I combined with either AmB or FCZ against disseminated candidiasis, aspergillosis and cryptococcosis were performed.

[2] = test system: A. fumigatus; test: drug interaction and efficacy study against disseminated aspergillosis; format: in vivo; conditions: Compound I 0.008 mg/kg combined with AmB 0.12 mg/kg, over the compounds administered alone
Protocol: as §1

[3] = test system: C. neoformans; test: drug interaction and efficacy study against cryptococcosis in mice; format: in vivo
Protocol: as §1

[4] = test system: A. fumigatus; test: broth microdilution antifungal susceptibility / drug combination testing in vitro (NCCLS M27-T); format: cell-based
Text: (§2) This has been shown using a broth microdilution technique which is the standard method for antifungal susceptibility testing proposed by the NCCLS (protocol M27-T). Sub-inhibitory concentrations of Compound I in combination with sub-inhibitory concentrations of AmB and sub-inhibitory concentrations of FCZ were employed. The minimal inhibitory concentrations (MICS) for AmB and Compound I were defined as the lowest drug concentration at which there was an absence of growth.
(§3) Additional drug combination testing in vitro was performed to evaluate combinations of Compound I with AmB and FCZ against clinical isolates. There was no antagonism evident between Compound I and AmB against C. albicans, A. fumigatus and C. neoformans. Fractional inhibitory indices (FIC) were approximately 0.50 or lower, indicative of additive or synergistic activity.

[5] = test system: C. albicans; test: as above; format: cell-based
Text: as §2, §3

[6] = test system: C. neoformans; test: as above; format: cell-based
Text: as §2, §3

[7] = test system: C. albicans; test: drug interaction and efficacy study against disseminated candidiasis; format: in vivo; conditions: Compound I 0.03 mg/kg and lower plus AmB 0.03 mg/kg and lower
Protocol: as §1

[8] = Compound I with AmB, sub-inhibitory concentrations
[9] = in vitro drug combination, clinical isolates, indicative of additive or synergistic activity

Compound: CCC(C)CC(C)CCCCCCCCC(=O)N[C@H]1C[C@@H](O)[C@@H](NCCN)NC(=O)[C@@H]2[C@@H](O)CCN2C(=O)[C@H]([C@H](O)CCN)NC(=O)[C@H]([C@H](O)[C@@H](O)c2ccc(O)cc2)NC(=O)[C@@H]2C[C@@H](O)CN2C(=O)[C@H]([C@@H](C)O)NC1=O (stereo partly drawn) [Compound I]
- FIC values in vivo ([1]; Compound I and AmB, suggesting additive or synergistic activity in vivo): approximately 0.50
- adverse effects with combinations ([1]; Compound I combined with either AmB or FCZ, at high, use or lower concentrations): no adverse effects
- antagonism of efficacy ([1]; either AmB or FCZ combined with Compound I): no antagonism of efficacy
- survival [2]: Significant improvement in survival
- antagonism of efficacy ([3]; FCZ in combination with Compound I, cryptococcosis in mice): no antagonism of efficacy
- effects on efficacy ([3]; combinations of Compound I and FCZ at certain concentrations): Beneficial effects on efficacy
- activity of combination therapy in vitro [4, 8]: enhanced activity
- Fractional inhibitory indices (FIC) [4, 9]: ≤ 0.50
- antagonism between Compound I and AmB ([4]; in vitro, clinical isolates): no antagonism
- activity of combination therapy in vitro [5, 8]: enhanced activity
- Fractional inhibitory indices (FIC) [5, 9]: ≤ 0.50
- antagonism between Compound I and AmB ([5]; in vitro, clinical isolates): no antagonism
- effect on activity of fluconazole (CFU numbers) ([6]; Compound I combined with fluconazole 0.25, 0.50 and 1.0 μg/ml): significantly enhanced the activity of fluconazole
- activity of combination therapy in vitro ([6]; Compound I with AmB and FCZ, sub-inhibitory concentrations, strains of C. neoformans): enhanced activity
- colony forming units (CFUs) ([6]; amphotericin B 0.0075, 0.015 and 0.03 μg/ml combined with Compound I 4, 8 and 16 μg/ml): markedly reduced
- Fractional inhibitory indices (FIC) [6, 9]: ≤ 0.50
- antagonism between Compound I and AmB ([6]; in vitro, clinical isolates): no antagonism
- efficacy of combination versus single agents [7]: more efficacious than either agent administered alone
